Like-named read-outs stand apart in the source and are kept apart here.
Experiments:
VB6PP [1] = biological target: T1, VB6PP (Sinorhizobium meliloti, UniProt A7BK78); assay: substrate specificity of the enzyme (phosphate release, malachite green method); assay type: biochemical; details: for Relative activity (%): substrate 160 μM final concentration, PNP = 100
Procedure: After incubation for 30 minutes, the reaction mixture was cooled down into an ice bath. Activity was determined in the following two ways. […] One unit of the enzyme activity was defined as-the amount of enzyme synthesizing 1 μmole of vitamin B6 for 30 minutes in the assay system described above.

VB6PP [2] = biological target: T1, VB6PP; assay: co-factor requirement of the enzyme to convert VB6P to vitamin B6 (standard enzyme assay); assay type: biochemical; parameters: Relative activity (%): concentration or dose not given beside the values
[3] = metal salt as co-factor, MnCl2 = 100

T1 sequence (A7BK78 entry or part of it): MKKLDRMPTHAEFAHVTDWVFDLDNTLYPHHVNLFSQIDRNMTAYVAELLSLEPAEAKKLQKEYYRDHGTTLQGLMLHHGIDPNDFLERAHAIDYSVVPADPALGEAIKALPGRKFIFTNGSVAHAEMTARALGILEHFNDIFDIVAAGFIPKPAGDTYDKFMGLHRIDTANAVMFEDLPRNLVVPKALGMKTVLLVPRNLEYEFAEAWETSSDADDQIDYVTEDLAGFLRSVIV

## O=P(O)(O)Oc1cccc2ccccc12 [1-naphthyl phosphate]
VB6PP [1]
  Relative activity (%): 9%

## O=C(O)COP(=O)(O)O [2-phosphoglycolic acid]
VB6PP [1]
  Relative activity (%): 0%

## [Cl-].[Cl-].[Co+2] [CoCl2]
VB6PP [2]
  Relative activity (%): 65%
  co-factor for conversion of VB6P to vitamin B6: could serve as a co-factor

## O=C(O)C(O)COP(=O)(O)O (stereo not drawn) [D(−)3-phosphoglyceric acid]
VB6PP [1]
  Relative activity (%): 0%

## O=C[C@H](O)[C@@H](O)[C@H](O)[C@H](O)COP(=O)(O)O [D-glucose 6-phosphate]
VB6PP [1]
  Relative activity (%): 0%

## [Cl-].[Cl-].[Mg+2] [MgCl2]
VB6PP [2]; divalent metal ion
  co-factor for conversion of VB6P to vitamin B6: could serve as a co-factor
VB6PP [2]; [3]
  Relative activity (%): 88%

## [Cl][Mn][Cl] [MnCl2]
VB6PP [2]; divalent metal ion
  co-factor for conversion of VB6P to vitamin B6: could serve as a co-factor
VB6PP [2]; [3]
  Relative activity (%): 100%

## [Cl][Ni][Cl] [NiCl2]
VB6PP [2]; divalent metal ion
  co-factor for conversion of VB6P to vitamin B6: could serve as a co-factor
VB6PP [2]; [3]
  Relative activity (%): 7%

## N[C@@H](COP(=O)(O)O)C(=O)O [O-phospho-L-serine]
VB6PP [1]
  Relative activity (%): 0%

## Cc1ncc(COP(=O)(O)O)c(C=O)c1O [PLP, pyridoxal 5′-phosphate]
VB6PP [1]
  Substrate specificity: active
  Relative activity (%): 40%

## Cc1ncc(COP(=O)(O)O)c(CN)c1O [PMP, pyridoxamine 5′-phosphate]
VB6PP [1]
  Substrate specificity: active
  Relative activity (%): 0.1%

## [Cl][Sn][Cl] [SnCl2]
VB6PP [2]; divalent metal ion
  co-factor for conversion of VB6P to vitamin B6: could serve as a co-factor
VB6PP [2]; [3]
  Relative activity (%): 11%

## Nc1ncnc2c1ncn2[C@@H]1O[C@H](COP(=O)(O)OP(=O)(O)O)[C@@H](O)[C@H]1O [adenosine diphosphate]
VB6PP [1]
  Relative activity (%): 0%

## Nc1ncnc2c1ncn2[C@@H]1O[C@H](COP(=O)(O)O)[C@@H](O)[C@H]1O [adenosine monophosphate]
VB6PP [1]
  Relative activity (%): 6%

## Nc1ncnc2c1ncn2[C@@H]1O[C@H](COP(=O)(O)OP(=O)(O)OP(=O)(O)O)[C@@H](O)[C@H]1O [adenosine triphosphate]
VB6PP [1]
  Relative activity (%): 0%

## O=[N+]([O-])c1ccc(OP(=O)(O)O)cc1 [p-nitrophenyl phosphate]
VB6PP [1]
  Relative activity (%): 29%

— patent US6984510B2, “Vitamin B6-phosphate phosphatase” (DSM IP Assets B.V., priority 2001, dated 2006)
